According to US10464901B2, “Composition including benzene diamine derivative for preventing or treating degenerative brain diseases” (UNIST(ULSAN NATIONAL INSTITUTE OF SCIENCE AND TECHNOLOGY), priority 2017, dated 2019):

Assays:
[1] = test system: APP/PS/Tau dementia mouse model; experiment: Morris water maze test, memory capacity of dementia mouse model; assay type: in vivo; conditions: oral 100 μg/kg twice a week for 2 months
Protocol: In order to investigate enhancement of spatial cognition and memory in dementia mouse models by the benzene diamine derivatives of the present disclosure, a Morris water maze (Harvard Apparatus, USA) test was performed.
In detail, a water maze composed of a stainless steel pool with a diameter of 150 cm×a height of 60 cm and an escape platform (10 cm in diameter, 30 cm in height) was filled with water at 22±2° C., and the height was 2 cm above the platform such that when a mouse sat on the escape platform, the body was allowed to come out of the water. […] Escape latency was measured as the time taken for the experimental animal to go to the escape platform when the experimental animal went to the escape platform and stayed thereon for more than 20 seconds. This test was performed three times a day, and a mean value was determined as mean escape latency. The escape latency was recorded on the computer program (Smart Video Tracking System V3.0, PanLab SL, Barcelona, Spain) by installing a camera on the ceiling above the water tank. The experiment was performed three times a day for 6 days, and at this time, the possibility of accidentally visiting the escape platform was minimized by sequentially changing the positions of the experimental animals in the water tank. In the experiment, a normal mouse, a control dementia mouse administered with a vehicle (PBS) and an experimental dementia mouse administered with 100 μg/kg of N^1-(pyridin-2-ylmethypenzene-1,4-diamine (Compound 2) twice a week for 2 months were used after completing administration, as in Experimental Example 1.

PAMPA-BBB analysis = assay type: in vitro ADME
Protocol: […] PAMPA-BBB analysis was performed by using a PAMPA Explorer kit (pION, Inc. Billerica, Mass., USA) according to the manufacture's protocol with slight modifications. […] The prepared solution was put in each well of a donor plate (200 μl, repeated 12 times). A polyvinylidene fluoride (PVDF, […]) filter membrane on an acceptor plate was coated with BBB-1 lipid formulation (5 μl, pION). The acceptor plate was placed on top of the donor plate to generate a “sandwich”. Brain sink buffer (BSB, 200 μl, pION) was added to each well of the acceptor plate. The sandwich-shaped plate was incubated for 4 hours at room temperature without stirring. UV-vis spectra of the solutions in the reference, acceptor, and donor plates were measured using a microplate reader. A PAMPA Explorer software [v. 3.8 (pION)] was used to calculate the −log Pe values for compounds. CNS±designations were assigned by comparison with compounds that were identified in previous reports.

oligomeric Aβ42 = biological target: T1, oligomeric Aβ42 (Homo sapiens, UniProt P05067); experiment: Brain tissue immunohistofluorescence, oligomeric Aβ; assay type: in vivo, mouse; conditions: oral 100 μg/kg twice a week for 2 months, confocal, FIG. 8
T1 construct: from tissue; host or cells: brain of dementia mouse models
T1 sequence (P05067 672-713 limits assumed): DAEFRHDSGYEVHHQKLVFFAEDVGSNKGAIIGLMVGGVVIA
Protocol: Oligomeric Aβ formation in the brain tissue may cause neuronal cell death by neuronal cytotoxicity, which may cause dementia. Therefore, anatomical analysis of the brain tissue was performed to examine whether the benzene diamine derivatives of the present disclosure inhibit neuronal cytotoxicity by oligomeric Aβ in dementia mouse models.
In detail, as in Experimental Example 7-1, the dementia mouse models were prepared and their brain tissues were stained. Anti-oligomeric Aβ primary antibody (ab126892, Abcam, Eugene, USA) labeled with QD525 probe (red fluorescence) was used to examine changes in the quantity of oligomeric Aβ42. Further, to measure changes of plaques, the tissues were stained with a fluorescent staining reagent MX04 (blue) and incubated at 4° C. for 12 hours. Thereafter, the tissues were observed under a confocal microscope at 0.5×10.

[2] = test system: APP/PS/Tau dementia mouse model; experiment: Morphological change of brain of dementia mouse model; assay type: in vivo; conditions: oral 100 μg/kg twice a week for 2 months, FIG. 6
Description: In order to examine therapeutic effects of the benzene diamine derivatives on dementia, dementia mouse models were orally administered with the benzene diamine derivative, and morphological changes in the brains thereof were examined.
In detail, APP/PS/Tau was purchased as the dementia mouse model from Jackson lab (BAR HARBOR, USA), and APP/Tau female and APP/PSen1de9 purchased from Taconic (Hudson, USA) were cross-mated for 6 generations, and 4-month-old mouse models were obtained from F1. The dementia mouse models were divided into groups of 6 mice, and among the dementia mouse models, a control group was orally administered with a vehicle (PBS) for 2 months, and an experimental group was orally administered with 100 μg/kg/0.1 ml of N^1-(pyridin-2-ylmethyl)benzene-1,4-diamine (Compound 2) twice a week for 2 months. Thereafter, the mice were sacrificed, and their brains were removed. Their longitudinal sections were cut, and morphological changes were examined. For comparison, a normal mouse was sacrificed and its brain was removed. Its longitudinal section was cut, and morphological changes were examined.

monomeric Aβ42 = biological target: T2, monomeric Aβ42 (Homo sapiens, UniProt P05067); experiment: Brain tissue immunohistofluorescence, monomeric Aβ (BAM-10) and plaques (MX04); assay type: in vivo, mouse; conditions: oral 100 μg/kg twice a week for 2 months, confocal, FIG. 7
T2 construct: from tissue; host or cells: brain of dementia mouse models
T2 sequence (P05067 672-713 limits assumed): as above
Protocol: Overexpression of monomeric Aβ may increase formation of oligomeric Aβ, Aβ aggregates, and amyloid plaques to cause neuronal cytotoxicity. Therefore, anatomical analysis of the brain tissue was performed to examine whether the benzene diamine derivatives of the present disclosure inhibit monomeric Aβ formation in dementia mouse models.
As in Experimental Example 1, a control group was orally administered with a vehicle for 2 months, and an experimental group was orally administered with 100 μg/kg/0.1 ml of N^1-(pyridin-2-ylmethyl)benzene-1,4-diamine (Compound 2) twice a week for 2 months. The brain was taken from a non-treated dementia mouse model (4 months), and the brains of the control group and the experimental group were also taken after the administration. Each mouse was anesthetized with ketamine, and then the skull was incised. The brain was then embedded in paraffin and subjected to immunohistofluorescence staining. The brain tissues were fixed in formalin and sectioned at a thickness of 50 μm by using a vibrotome, and each tissue was placed on a glass slice. For comparison of monomeric Aβ, BAM-10 monoclonal anti-Aβ primary antibody labeled with QD525 probe (green fluorescence) was used to examine changes in the quantity of monomeric Aβ42. […]

PAMPA-BBB permeability class (PAMPA-BBB analysis; 50 μM, incubation 4 hrs, U.V): High
Papp at 4 h, 50 μM (PAMPA-BBB analysis; PAMPA, pH 7.4, 50 μM, incubation 4 hrs, U.V, read-out: Pe): 12.5 ×10⁻⁶ cm/s
CNS± designation (PAMPA-BBB analysis; assigned by comparison with compounds identified in previous reports): (CNS+)
oligomeric Aβ in brain (oligomeric Aβ42): oligomeric Aβ was hardly observed
plaques (MX04) in brain (monomeric Aβ42): plaques were hardly observed
SMILES: Nc1ccc(NCc2ccccn2)cc1 [Compound 2, N^1-(pyridin-2-ylmethyl)benzene-1,4-diamine]
difference in mean escape latency vs control group at 4 days ([1]; AD mice): 16 s
difference in mean escape latency vs dementia group at 5 days ([1]; AD mice): 19 s
mean escape latency at 4 days ([1]; AD mice): 26 ± 1 s
mean escape latency at 5 days ([1]; AD mice): 24 ± 1 s
mean escape latency at 3 days (worded) ([1]; vs dementia control group, FIG. 5): significantly short mean escape latency
brain morphology / longitudinal section [2]: brain morphology similar to that of the normal group
monomeric Aβ formation in cortex and hippocampus (monomeric Aβ42): monomeric Aβ formation was hardly observed
